Experimental data from US9126994B2, “Crystalline form of a quinolinone-carboxamide compound” (Theravance Biopharma R&D IP, LLC, priority 2005, dated 2015).

Key:
Format in all cases: physicochemical
[1] = Thermal analysis (DSC and TGA)
Protocol: Differential scanning calorimetry (DSC) was performed using a TA Instruments Model Q-100 module. Data were collected and analyzed using TA Instruments Thermal Advantage for Q Series™ software. A sample of about 1-10 mg was accurately weighed into an aluminum pan with lid. The sample was evaluated using a linear heating ramp of 10° C./min from 5° C. to, typically, 265° C. The DSC cell was purged with dry nitrogen during use. Representative DSC traces for samples of the crystalline hydrochloride salt and of the crystalline hydrate of a hydrochloride salt of compound I are shown in FIGS. 2 and 5, respectively.
Thermogravimetric analysis (TGA) was performed using a TA Instruments Model Q-500 module. Data were collected and analyzed using TA Instruments Thermal Advantage for Q Series™ software. A sample weighing about 1-5 mg was placed in an aluminum pan on a platinum cradle and scanned from ambient temperature to 300° C. with a linear heating rate of 10° C./min. The balance and furnace chambers were purged with nitrogen during use. Representative TGA traces for samples of a crystalline hydrochloride salt and of a crystalline hydrate of a hydrochloride salt of compound I are also shown in FIGS. 2 and 5, respectively.

[2] = Dynamic moisture sorption (DMS) assessment; conditions: for sorption/desorption profile: about 2% to about 90% RH, room temperature
Protocol: Dynamic moisture sorption (DMS) assessment was performed at 25° C. using a VTI atmospheric microbalance, SGA-100 system (VTI Corp., Hialeah, Fla. 33016). A sample size of approximately 5-10 mg was used and the humidity was set at the ambient value at the start of the analysis. A typical DMS analysis consisted of three scans: ambient to 2% relative humidity (RH), 2% RH to 90% RH, 90% RH to 5% RH at a scan rate of 5% RH/step. The mass was measured every two minutes and the RH was changed to the next value (±5% RH) when the mass of the sample was stable to within 0.02% for 5 consecutive points. Representative DMS traces for samples of a crystalline hydrochloride salt and of a crystalline hydrate of a hydrochloride salt of compound I are shown in FIGS. 3 and 6, respectively.

[3] = Solid state stability assessment; conditions: for change in DSC, TGA, PXRD results after storage: hydrochloride
Description: At specific intervals, the contents of a representative vial was removed and analyzed by DSC, TGA, PXRD, and by HPLC for chemical purity.

[4] = comparison of DSC and TGA traces
[5] = 24 weeks at 40° C. and 75% relative humidity

Compound	decomposition (degradation) temperature [1, 4]	decomposition at the melt transition ([1]; comparison of DSC and TGA traces, melt about 225° C. to about 250° C.)	weight gain ([2]; 40% RH to 75% RH)	sorption/desorption profile [2]	weight loss on drying ([2]; dried from ambient to 2% RH, regained from 2% RH to 40% RH) [%]	temperature up to which thermally stable [1]	temperature below which no significant thermal event ([1]; TGA / DSC trace, 10° C./min)	chemical degradation by HPLC after storage [3, 5]	change in DSC, TGA, PXRD results after storage [3, 5]	change in DSC, TGA, PXRD results after storage ([3]; 24 weeks at 40° C. and 75% relative humidity, listed as hydrochloride salt)	chemical purity of the stored sample (HPLC) ([3]; after 24 weeks of storage, open glass vials, 40° C. and 75% RH) [%]	weight change (hygroscopicity) ([2]; 2% to 90% relative humidity, room temperature (25° C.))	deliquescence ([2]; exposed to up to 90% relative humidity at room temperature)
CC(C)n1c(=O)c(C(=O)N[C@H]2C[C@H]3CC[C@@H](C2)N3C[C@@H](O)CN(C)S(C)(=O)=O)cc2ccccc21.Cl.O [crystalline hydrate, crystalline hydrate of hydrochloride salt of 1-isopropyl-2-oxo-1,2-dihydroquinoline-3-carboxylic acid {(1S,3R,5R)-8-[(R)-2-hydroxy-3-(methanesulfonyl-methyl-amino)propyl]-8-aza-bicyclo[3.2.1]oct-3-yl}amide]	above 250 °C	not significant	less than 0.25%	reversible	~2.3								
CC(C)n1c(=O)c(C(=O)N[C@H]2C[C@H]3CC[C@@H](C2)N3C[C@@H](O)CN(C)S(C)(=O)=O)cc2ccccc21.Cl [crystalline hydrochloride salt, 1-isopropyl-2-oxo-1,2-dihydroquinoline-3-carboxylic acid {(1S,3R,5R)-8-[(R)-2-hydroxy-3-(methanesulfonyl-methyl-amino)propyl]-8-azabicyclo[3.2.1]oct-3-yl}amide hydrochloride]	above 230 °C			reversible		greater than 200 °C	about 225 °C	no chemical degradation	no detectable changes	no detectable change	99.6	less than 0.2%	neither the crystalline hydrochloride salt of the invention nor the hydrate thereof is deliquescent
